Data taken from patent US20210205238A1, “STABILIZED INJECTABLE PHARMACEUTICAL COMPOSITION OF L-EPINEPHRINE” (MERCK PATENT GMBH, priority 2017, published 2021).
Counter-ions that a name gives are not always drawn. Blank lines part the entries; values can stand above or below the compound they belong to.

Columns and labels:
[1] = HPIC for determination of sodium metabisulfite as sulfite in stored formulations; assay type: physicochemical; settings: after 28 days at 60° C., senior formulation 1.1 mg/mL
Experimental: Epinephrine formulations were diluted 1:100 (formulations with 1.67 mg/mL Na2S2O5), 1:50 (formulations with 0.95 mg/mL and 0.48 mg/mL Na2S2O5) and 1:25 (formulation with 0.16 mg/mL Na2S2O5) in water containing 0.37% formaldehyde. Chromatographic separation was conducted on a Dionex Ion chromatograph ICS3000. 50 μl sample were applied on a HPIC column (AS4aSC, 4 mm×250 mm Thermo Scientific) using a guard column (AG4aSC, 4 mm×50 mm Thermo Scientific). Chromatographic separation was conducted in Eluent A (1.3 mM sodium hydrogen carbonate and 1.4 mM sodium carbonate in water) at 30° C. over 20 min at a flow rate of 2 mL/min. Conductivity detection with suppressor technology was used at a cell temperature of 35° C.

[2] = sulfonic acid derivative formed by reaction of epinephrine with sodium bisulfite; cited from earlier work
[3] = senior formulations 1.1 mg/mL, E:S 0.34, pH 3.9, 60° C., 28 days; vs epinephrine base

sodium metabisulfite starting content degraded ([1]; at E:S=1.2): > 70%
sodium metabisulfite starting content degraded ([1]; at E:S=3): > 90%
SMILES: O=S([O-])S(=O)(=O)[O-].[Na+].[Na+] [sodium metabisulfite]

SMILES: CNCC(c1ccc(O)c(O)c1)S(=O)(=O)O (stereo not shown) [ESA, epinephrine sulfonic acid]
biological activity [2]: biologically inactive

D-enantiomer formation [3]: significantly reduced
SMILES: CNC[C@H](O)c1ccc(O)c(O)c1 [epinephrine tartrate]
